The experiment deals with T1, vesicular monoamine transporter 2 (VMAT2) (Homo sapiens, UniProt Q05940).
T1 construct: gene SLC18A2; human VMAT2 stably expressed in HEK293 cells (HEK-hVMAT2), pcDNA3.1
Kind of experiment: inhibition of vesicular 3H-dopamine uptake in HEK-hVMAT2 cell fractions. The format is biochemical.

pIC50: −log10 of the molar value.

As usually defined, the pIC50 is −log10 of the IC50, conventionally taken in molar units. Low readings indicate a large IC50, high ones a small IC50.

T1 sequence (Q05940 whole entry): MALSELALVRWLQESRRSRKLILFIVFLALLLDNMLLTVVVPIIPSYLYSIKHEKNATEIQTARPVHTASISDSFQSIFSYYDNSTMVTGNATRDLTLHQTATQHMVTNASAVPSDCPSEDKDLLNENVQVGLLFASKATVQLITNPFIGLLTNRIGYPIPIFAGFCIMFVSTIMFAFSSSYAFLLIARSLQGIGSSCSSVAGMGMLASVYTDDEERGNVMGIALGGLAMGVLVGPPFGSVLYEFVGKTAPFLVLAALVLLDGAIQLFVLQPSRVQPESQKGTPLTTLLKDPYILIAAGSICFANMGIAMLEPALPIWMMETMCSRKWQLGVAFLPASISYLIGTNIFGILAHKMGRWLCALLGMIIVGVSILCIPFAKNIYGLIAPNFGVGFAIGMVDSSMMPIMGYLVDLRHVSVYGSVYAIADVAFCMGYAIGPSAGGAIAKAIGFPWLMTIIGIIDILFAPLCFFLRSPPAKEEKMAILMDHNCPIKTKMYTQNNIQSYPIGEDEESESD

In the case of `O=S(=O)(O)C(F)(F)C(F)(F)C(F)(F)C(F)(F)C(F)(F)C(F)(F)C(F)(F)C(F)(F)F` [PFOS], the pIC50 was 5.34.

The values above are taken from article PMC5635798, “Alteration to Dopaminergic Synapses Following Exposure to Perfluorooctane Sulfonate (PFOS), in Vitro and in Vivo” (Medical Sciences, 2016).
